Legend:
Assay in all cases: relative viability (nuclei count vs DMSO), 5 days (fraction); higher = more cells survive
[1] = compound: CC1=CC(=NN1)NC2=CC(=NC(=N2)/C=C/C3=CC=CC=C3)N4CCN(CC4)C + Nc1nc2[nH]cc(CCc3ccc(C(=O)N[C@@H](CCC(=O)O)C(=O)O)cc3)c2c(=O)[nH]1 [Pemetrexed] (partner 0.2 µM)
Summary of the method: (§1)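 Lung cancer cell lines in 1536-well plates were dosed by pin tool the day after seeding, either with one drug alone or with a fixed anchor-drug dose plus five library-drug doses (not always all listed) in √10 steps. After 5 days, cells were fixed and their nuclei stained in one step (final 0.05% Triton X-100, 1% formaldehyde, 1 ug/ml Hoechst), then counted on 4× images. Relative viability is the nuclei count in treated wells divided by that in vehicle wells. Values are medians of duplicate plates.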

[2] = compound: CC1=CC(=NN1)NC2=CC(=NC(=N2)/C=C/C3=CC=CC=C3)N4CCN(CC4)C + O=C(c1cc(Cc2n[nH]c(=O)c3ccccc23)ccc1F)N1CCN(C(=O)C2CC2)CC1 [Olaparib] (partner 8 µM)
Summary of the method: as §1

Obatoclax + Olaparib = compound: COC1=CC(c2cc3ccccc3[nH]2)=N/C1=C\c1[nH]c(C)cc1C [Obatoclax] + O=C(c1cc(Cc2n[nH]c(=O)c3ccccc23)ccc1F)N1CCN(C(=O)C2CC2)CC1 [Olaparib] (partner 8 µM)
Summary of the method: as §1

[3] = compound: CC1=CC(=NN1)NC2=CC(=NC(=N2)/C=C/C3=CC=CC=C3)N4CCN(CC4)C + NC(=O)Nc1cc(-c2cccc(F)c2)sc1C(=O)N[C@H]1CCCNC1 [AZD7762] (partner 0.2 µM)
Summary of the method: as §1

Row | Cell Line | relative viability ([1]; first compound 0.08 µM) | relative viability ([1]; first compound 0.253 µM) | relative viability ([1]; first compound 0.8 µM) | relative viability ([1]; first compound 2.53 µM) | relative viability ([1]; first compound 8 µM) | relative viability ([2]; first compound 0.08 µM) | relative viability ([2]; first compound 0.253 µM) | relative viability ([2]; first compound 0.8 µM) | relative viability ([2]; first compound 2.53 µM) | relative viability ([2]; first compound 8 µM) | relative viability (Obatoclax + Olaparib; first compound 0.01 µM) | relative viability (Obatoclax + Olaparib; first compound 0.03162 µM) | relative viability (Obatoclax + Olaparib; first compound 0.1 µM) | relative viability (Obatoclax + Olaparib; first compound 0.3162 µM) | relative viability (Obatoclax + Olaparib; first compound 1 µM) | relative viability ([3]; first compound 0.08 µM) | relative viability ([3]; first compound 0.253 µM) | relative viability ([3]; first compound 0.8 µM) | relative viability ([3]; first compound 2.53 µM) | relative viability ([3]; first compound 8 µM)
1 | HCC-78 | 0.804 | 0.91 | 0.926 | 0.938 | 0.874 | 0.732 | 0.902 | 0.903 | 0.673 | 0.29 | 0.836 | 0.952 | 1.26 | 0.668 | 0.855 | 0.628 | 0.746 | 0.868 | 0.401 | 0.249
2 | HCC-366 | 0.171 | 0.189 | 0.187 | 0.0462 | 0.0222 | 0.332 | 0.39 | 0.24 | 0.0237 | 0.0171 | 0.322 | 0.366 | 0.316 | 0.334 | 0.272 | 0.247 | 0.302 | 0.245 | 0.0242 | 0.0179
3 | HCC-827 | 0.159 | 0.241 | 0.262 | 0.266 | 0.171 | 0.605 | 0.622 | 0.708 | 0.62 | 0.263 | 0.594 | 0.542 | 0.628 | 0.581 | 0.221 | 0.188 | 0.199 | 0.217 | 0.197 | 0.0973
4 | HOP-62 | 0.364 | 0.328 | 0.288 | 0.294 | 0.182 | 0.366 | 0.521 | 0.436 | 0.395 | 0.194 | 0.292 | 0.352 |  | 0.434 | 0.405 | 0.673 | 0.615 | 0.778 | 0.385 | 0.159
5 | IA-LM |  |  |  |  |  | 0.839 | 0.899 | 0.981 | 1.02 | 0.174 | 0.832 | 0.881 | 0.775 | 0.782 | 0.114 |  |  |  |  | 
6 | LC-2-ad | 0.263 | 0.266 | 0.269 | 0.187 | 0.143 | 0.692 | 0.687 | 0.704 | 0.471 | 0.164 | 0.693 | 0.676 | 0.732 | 0.723 | 0.648 | 0.778 | 0.928 | 0.676 | 0.16 | 0.12
7 | LCLC-97TM1 | 0.186 | 0.226 | 0.161 | 0.164 | 0.0709 | 0.258 | 0.565 | 0.323 | 0.214 | 0.0672 | 0.273 | 0.38 | 0.389 | 0.293 | 0.348 | 0.177 | 0.251 | 0.236 | 0.139 | 0.0567
8 | NCI-H520 | 0.643 | 0.688 | 0.322 | 0.14 | 0.0969 | 0.3 | 0.332 | 0.307 | 0.152 | 0.104 | 0.301 | 0.323 | 0.372 | 0.289 | 0.208 |  |  |  |  | 
9 | NCI-H661 | 0.884 | 0.898 | 0.855 | 0.576 | 0.326 | 0.658 | 0.826 | 0.752 | 0.424 | 0.275 | 0.741 | 0.729 | 0.729 | 0.676 | 0.516 |  |  |  |  | 
10 | NCI-H727 |  |  |  |  |  | 0.708 | 0.635 | 0.791 | 0.722 | 0.44 | 0.815 | 0.883 | 0.708 | 0.637 | 0.697 | 0.571 | 0.427 | 0.601 | 0.55 | 0.381
11 | NCI-H1299 |  |  |  |  |  | 0.961 | 0.924 | 0.975 | 0.616 | 0.167 | 0.946 | 0.92 | 0.976 | 0.969 | 0.331 |  |  |  |  | 
12 | NCI-H1563 | 0.76 | 0.861 | 0.853 | 0.592 | 0.396 |  |  |  |  |  |  |  |  |  |  |  |  |  |  | 
13 | NCI-H1650 | 0.37 | 0.373 | 0.379 | 0.268 | 0.146 | 0.831 | 0.831 | 0.764 | 0.748 | 0.0952 | 0.764 | 0.742 | 0.774 | 0.539 | 0.229 |  |  |  |  | 
14 | NCI-H1703 |  |  |  |  |  | 0.355 | 0.392 | 0.167 | 0.168 | 0.0731 | 0.18 | 0.403 | 0.393 | 0.524 | 0.246 | 0.151 | 0.0851 | 0.114 | 0.147 | 0.0896
15 | NCI-H2009 | 1.09 | 1.03 | 0.982 | 0.909 | 0.313 | 0.657 | 0.746 | 0.691 | 0.811 | 0.324 | 0.687 | 0.712 | 0.705 | 0.573 | 0.26 |  |  |  |  | 
16 | NCI-H2023 | 0.214 | 0.283 | 0.198 | 0.117 | 0.0581 | 0.464 | 0.586 | 0.384 | 0.0975 | 0.0526 | 0.485 | 0.574 | 0.442 | 0.246 | 0.15 |  |  |  |  | 
17 | NCI-H2228 | 0.306 | 0.309 | 0.276 | 0.0818 | 0.055 | 0.699 | 0.727 | 0.374 | 0.316 | 0.0565 | 0.583 | 0.521 | 0.62 | 0.489 | 0.405 |  |  |  |  | 
18 | SK-LU-1 | 1 | 0.943 | 0.933 | 0.372 | 0.127 | 0.405 | 0.515 | 0.423 | 0.273 | 0.125 | 0.448 | 0.468 | 0.372 | 0.447 | 0.347 |  |  |  |  | 
19 | SK-MES-1 | 0.908 | 0.995 | 0.89 | 0.213 | 0.162 | 0.667 | 0.776 | 0.566 | 0.126 | 0.134 | 0.641 | 0.655 | 0.495 | 0.172 | 0.17 |  |  |  |  | 
20 | SW 1573 | 0.802 | 0.852 | 0.735 | 0.126 | 0.0679 | 0.442 | 0.413 | 0.377 | 0.111 | 0.0633 | 0.488 | 0.529 | 0.363 | 0.149 | 0.179 |  |  |  |  | 
21 | UMC-11 | 0.74 | 0.705 | 0.481 | 0.148 | 0.122 | 0.361 | 0.39 | 0.395 | 0.0656 | 0.167 | 0.316 | 0.448 | 0.43 | 0.415 | 0.289 |  |  |  |  | 

Source: the supplement of paper PMC10307832
